Tests used:
corn = assay: Test B pre/postemergence corn; format: in vivo, Zea mays
Summary of the method: (§1)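 Test chemicals in a non-phytotoxic solvent mixture with surfactant were sprayed preemergence onto planted seeds and postemergence onto plants 2 to 18 cm tall (1- to 4-leaf stage). After twelve to sixteen days in a greenhouse, injury was visually rated against untreated controls from 0 (no effect) to 10 (complete control).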

bedstraw = assay: Test B pre/postemergence bedstraw; format: in vivo, Galium aparine
Summary of the method: as §1

surinam grass = assay: Test B pre/postemergence surinam grass; format: in vivo, Brachiaria decumbens
Summary of the method: as §1

duck salad = assay: Test B flood test duck salad; format: in vivo, Heteranthera limosa
Summary of the method: (§2)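 Flood test on plants grown to the 2-leaf stage; treated plants kept in greenhouse twelve to sixteen days, then visually rated against controls on a 0 (no effect) to 10 (complete control) scale.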

velvetleaf = assay: Test B pre/postemergence velvetleaf; format: in vivo, Abutilon theophrasti
Summary of the method: as §1

smallflower flatsedge = assay: Test B flood test smallflower flatsedge; format: in vivo, Cyperus difformis
Summary of the method: as §2

soybean = assay: Test B pre/postemergence soybean; format: in vivo, Glycine max
Summary of the method: as §1

morningglory = assay: Test B pre/postemergence morningglory; format: in vivo, Ipomoea hederacea
Summary of the method: as §1

giant foxtail = assay: Test B pre/postemergence giant foxtail; format: in vivo, Setaria faberii
Summary of the method: as §1

rice = assay: Test B flood test rice; format: in vivo, Oryza sativa
Summary of the method: as §2

bamyardgrass = assay: Test B flood test barnyardgrass; format: in vivo, Echinochloa crus-galli
Summary of the method: as §2

sugar beet = assay: Test B pre/postemergence sugar beet; format: in vivo, Beta vulgaris
Summary of the method: as §1

blackgrass = assay: Test B pre/postemergence blackgrass; format: in vivo, Alopecurus myosuroides
Summary of the method: as §1

pigweed = assay: Test B pre/postemergence pigweed; format: in vivo, Amaranthus retroflexus
Summary of the method: as §1

rape = assay: Test B pre/postemergence rape; format: in vivo, Brassica napus
Summary of the method: as §1

purple nutsedge = assay: Test B pre/postemergence purple nutsedge; format: in vivo, Cyperus rotundus
Summary of the method: as §1

[1] = Postemergence, Rate 62 g/ha, scale 0 to 10, 0 is no effect, 10 is complete control
[2] = Postemergence, Rate 125 g/ha, scale of 0 to 10 where 0 is no effect and 10 is complete control
[3] = Postemergence, Rate 250 g/ha, scale of 0 to 10, 0 is no effect, 10 is complete control
[4] = Postemergence, Rate 500 g/ha, scale of 0 to 10 where 0 is no effect and 10 is complete control
[5] = Preemergence, Rate 62 g/ha, scale 0 to 10 (0 no effect, 10 complete control)
[6] = Preemergence, Rate 125 g/ha, scale of 0 to 10 where 0 is no effect and 10 is complete control
[7] = Preemergence, Rate 250 g/ha, scale 0 to 10 (0 no effect, 10 complete control)
[8] = Preemergence, Rate 500 g/ha, scale of 0 to 10 where 0 is no effect and 10 is complete control
[9] = Rate 62 g/ha, flood test species, Pre-emergence, visual evaluation after twelve to sixteen days
[10] = Rate 125 g/ha, under heading Pre-emergence, flood test species, visual evaluation after twelve to sixteen days
[11] = Rate 250 g/ha, Pre-emergence (flood test species), scale 0 to 10, 0 is no effect, 10 is complete control
[12] = Rate 500 g/ha, Pre-emergence section of Table B, 0 to 10 scale (0 no effect, 10 complete control)

CC(C)N(C(=O)n1oc(=O)n(CC2CCCCO2)c1=O)c1ccc(F)cc1 (stereo not drawn) [Compound 624]
Plant response rating, Corn (corn; [1]): 0
Plant response rating, Corn (corn; [2]): 0
Corn plant response rating (corn; [3]): 2
Plant response rating, Corn (corn; [4]): 5
Corn plant response rating (corn; [5]): 0
Corn plant response rating (corn; [6]): 0
Plant response rating, Corn (corn; [7]): 2
Plant response rating, Corn (corn; [8]): 6
Plant response rating, Bedstraw (bedstraw; [1]): 0
Bedstraw plant response rating (bedstraw; [5]): 0
Bedstraw plant response rating (bedstraw; [6]): 0
Plant response rating, Bedstraw (bedstraw; [7]): 0
Plant response rating, Bedstraw (bedstraw; [8]): 3
Plant response rating, B. signalgrass (surinam grass; [1]): 4
Plant response rating, B. signalgrass (surinam grass; [2]): 7
B. signalgrass plant response rating (surinam grass; [3]): 7
Plant response rating, B. signalgrass (surinam grass; [4]): 8
B. signalgrass plant response rating (surinam grass; [5]): 3
B. signalgrass plant response rating (surinam grass; [6]): 6
Plant response rating, B. signalgrass (surinam grass; [7]): 6
Plant response rating, B. signalgrass (surinam grass; [8]): 8
Plant response rating, Ducksalad (0 to 10 scale, 0 is no effect, 10 is complete control) (duck salad; [9]): 0
Ducksalad plant response rating (0 to 10 scale, 0 is no effect, 10 is complete control) (duck salad; [10]): 0
Ducksalad plant response rating (duck salad; [11]): 0
Ducksalad plant response rating (duck salad; [12]): 0
Plant response rating, Velvetleaf (velvetleaf; [1]): 0
Plant response rating, Velvetleaf (velvetleaf; [2]): 0
Velvetleaf plant response rating (velvetleaf; [3]): 0
Velvetleaf plant response rating (velvetleaf; [5]): 0
Velvetleaf plant response rating (velvetleaf; [6]): 0
Plant response rating, Velvetleaf (velvetleaf; [7]): 1
Plant response rating, Velvetleaf (velvetleaf; [8]): 8
Plant response rating, S. Flatsedge (0 to 10 scale, 0 is no effect, 10 is complete control) (smallflower flatsedge; [9]): 0
S. Flatsedge plant response rating (0 to 10 scale, 0 is no effect, 10 is complete control) (smallflower flatsedge; [10]): 0
S. Flatsedge plant response rating (smallflower flatsedge; [11]): 0
S. Flatsedge plant response rating (smallflower flatsedge; [12]): 0
Plant response rating, Soybean (soybean; [1]): 2
Plant response rating, Soybean (soybean; [2]): 3
Soybean plant response rating (soybean; [3]): 7
Soybean plant response rating (soybean; [5]): 0
Soybean plant response rating (soybean; [6]): 0
Plant response rating, Soybean (soybean; [7]): 3
Plant response rating, Soybean (soybean; [8]): 7
Plant response rating, Morningglory (morningglory; [1]): 1
Plant response rating, Morningglory (morningglory; [2]): 1
Morningglory plant response rating (morningglory; [3]): 1
Plant response rating, Morningglory (morningglory; [4]): 2
Morningglory plant response rating (morningglory; [5]): 0
Morningglory plant response rating (morningglory; [6]): 0
Plant response rating, Morningglory (morningglory; [7]): 0
Plant response rating, Morningglory (morningglory; [8]): 0
Plant response rating, Giant foxtail (giant foxtail; [1]): 4
Plant response rating, Giant foxtail (giant foxtail; [2]): 8
Giant foxtail plant response rating (giant foxtail; [3]): 8
Plant response rating, Giant foxtail (giant foxtail; [4]): 9
Giant foxtail plant response rating (giant foxtail; [5]): 10
Giant foxtail plant response rating (giant foxtail; [6]): 10
Plant response rating, Giant foxtail (giant foxtail; [7]): 10
Plant response rating, Giant foxtail (giant foxtail; [8]): 10
Plant response rating, Rice (0 to 10 scale, 0 is no effect, 10 is complete control) (rice; [9]): 0
Rice plant response rating (0 to 10 scale, 0 is no effect, 10 is complete control) (rice; [10]): 0
Rice plant response rating (rice; [11]): 0
Rice plant response rating (rice; [12]): 0
Plant response rating, Barnyardgrass (0 to 10 scale, 0 is no effect, 10 is complete control) (bamyardgrass; [9]): 0
Barnyardgrass plant response rating (0 to 10 scale, 0 is no effect, 10 is complete control) (bamyardgrass; [10]): 0
Barnyardgrass plant response rating (bamyardgrass; [11]): 0
Barnyardgrass plant response rating (bamyardgrass; [12]): 0
Plant response rating, Sugarbeets (sugar beet; [1]): 0
Plant response rating, Sugarbeets (sugar beet; [2]): 0
Sugarbeets plant response rating (sugar beet; [3]): 0
Sugarbeets plant response rating (sugar beet; [5]): 0
Sugarbeets plant response rating (sugar beet; [6]): 1
Plant response rating, Sugarbeets (sugar beet; [7]): 7
Plant response rating, Sugarbeets (sugar beet; [8]): 8
Plant response rating, Blackgrass (blackgrass; [1]): 4
Plant response rating, Blackgrass (blackgrass; [2]): 5
Blackgrass plant response rating (blackgrass; [3]): 8
Plant response rating, Blackgrass (blackgrass; [4]): 9
Blackgrass plant response rating (blackgrass; [5]): 1
Blackgrass plant response rating (blackgrass; [6]): 8
Plant response rating, Blackgrass (blackgrass; [7]): 8
Plant response rating, Blackgrass (blackgrass; [8]): 9
Plant response rating, Redroot pigweed (pigweed; [1]): 0
Plant response rating, Redroot pigweed (pigweed; [2]): 0
Redroot pigweed plant response rating (pigweed; [3]): 2
Redroot pigweed plant response rating (pigweed; [5]): 0
Redroot pigweed plant response rating (pigweed; [6]): 0
Plant response rating, Redroot pigweed (pigweed; [7]): 3
Plant response rating, Redroot pigweed (pigweed; [8]): 10
Plant response rating, Rape (rape; [1]): 0
Plant response rating, Rape (rape; [2]): 0
Rape plant response rating (rape; [3]): 0
Plant response rating, Rape (rape; [4]): 3
Rape plant response rating (rape; [5]): 0
Rape plant response rating (rape; [6]): 0
Plant response rating, Rape (rape; [7]): 1
Plant response rating, Rape (rape; [8]): 7
Plant response rating, Nutsedge (purple nutsedge; [1]): 0
Plant response rating, Nutsedge (purple nutsedge; [2]): 0
Nutsedge plant response rating (purple nutsedge; [3]): 0
Plant response rating, Nutsedge (purple nutsedge; [4]): 3
Nutsedge plant response rating (purple nutsedge; [5]): 0
Nutsedge plant response rating (purple nutsedge; [6]): 0
Plant response rating, Nutsedge (purple nutsedge; [7]): 0
Plant response rating, Nutsedge (purple nutsedge; [8]): 0
